Molecular target: human FKBP12 (Homo sapiens, UniProt P62942)
Conditions: Measurement 3; first solutions of two or three samples, one of them 100 μM FKBP12, others HSA
From the text: An apparatus for analyzing interactions in this example includes a column TSK super SW2000 for size exclusion chromatography (column size: 1.0 ID×10 mm, 1.0 ID×30 mm or 1.0 ID×100 mm, manufactured by Tosoh Corporation) for a separation channel 1. The apparatus for analyzing interactions also includes an auto injector HTC-PAL (manufactured by CTC Analytics AG) for a container section 3, and a LC pump (Agilent 1100, manufactured by Yokogawa) for an introduction device 4. The apparatus for analyzing interactions also includes an ion trap mass spectrometer LCQ deca XP (ThermoQuest) for a detection device 5.
The auto injector HTC-PAL (CTC Analytics AG) includes a sample loop of 5 μL or 10 μL, a syringe of 10 μL, and sample trays with a cooling unit. A first solution was introduced by 50 μL into a 2 mL screw vial with a conical insert of 100 μL inserted therein. A screw cap with a septum was put on the vial and the vial was placed in a 54 vial rack and the rack was set in one of the sample trays. A second solution was introduced by 40 μL into each well of a 384 well-microplate, and the microplate was covered with an aluminum seal and set in another sample tray. The sample trays were set at the temperature of 10 degrees C. […]

Chain of human FKBP12 (P62942 whole entry): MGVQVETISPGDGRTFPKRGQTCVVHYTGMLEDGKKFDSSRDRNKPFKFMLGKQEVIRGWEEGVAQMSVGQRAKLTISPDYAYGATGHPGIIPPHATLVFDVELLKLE

SMILES: CC[C@@H]1/C=C(\C)C[C@H](C)C[C@H](OC)[C@H]2O[C@@](O)(C(=O)C(=O)N3CCCC[C@H]3C(=O)O[C@H](/C(C)=C/[C@@H]3CC[C@@H](O)[C@H](OC)C3)[C@H](C)[C@@H](O)CC1=O)[C@H](C)C[C@@H]2OC [Ascomycin]
- interaction with FKBP12 (peaks in mass chromatogram of the compound): interaction between Ascomycin and FKBP12 is able to be detected
